Reference: PubChem BioAssay (NCI)
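GI50 is the concentration that inhibits growth by half. At the TGI there is no net growth.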

Key:
Assay in all cases: NCI tumour cell line growth inhibition, 384-well format
DU-145 prostate = test system: DU-145 prostate
TK-10 renal = test system: TK-10 renal
SK-OV-3 ovarian = test system: SK-OV-3 ovarian
OVCAR-4 ovarian = test system: OVCAR-4 ovarian
NCI-H322M lung = test system: NCI-H322M lung
NCI/ADR-RES ovarian = test system: NCI/ADR-RES ovarian
UO-31 renal = test system: UO-31 renal
MALME-3M melanoma = test system: MALME-3M melanoma
OVCAR-8 ovarian = test system: OVCAR-8 ovarian
NCI-H522 lung = test system: NCI-H522 lung
BT-549 breast = test system: BT-549 breast
HT29 colon = test system: HT29 colon
RPMI-8226 leukemia = test system: RPMI-8226 leukemia

| SMILES | GI50 (DU-145 prostate) | TGI (DU-145 prostate) | GI50 (TK-10 renal) | TGI (TK-10 renal) | GI50 (SK-OV-3 ovarian) | TGI (SK-OV-3 ovarian) | GI50 (OVCAR-4 ovarian) | TGI (OVCAR-4 ovarian) | GI50 (NCI-H322M lung) | TGI (NCI-H322M lung) | GI50 (NCI/ADR-RES ovarian) | TGI (NCI/ADR-RES ovarian) | GI50 (UO-31 renal) | TGI (UO-31 renal) | GI50 (MALME-3M melanoma) | TGI (MALME-3M melanoma) | GI50 (OVCAR-8 ovarian) | TGI (OVCAR-8 ovarian) | GI50 (NCI-H522 lung) | TGI (NCI-H522 lung) | also measured |
| --- | --- | --- | --- | --- | --- | --- | --- | --- | --- | --- | --- | --- | --- | --- | --- | --- | --- | --- | --- | --- | --- |
| Cn1cc(-c2cc3c(N4CCN(c5ncc([C@@](C)(N)c6ccc(F)cc6)cn5)CC4)ncnn3c2)cn1 | 5670 nM | > 45100 nM | 7290 nM | 48200 nM | 7900 nM | 52700 nM | 2960 nM | 12200 nM | 6680 nM | 21500 nM | 3190 nM | 17900 nM | 3600 nM | 14700 nM | 2460 nM | 5790 nM | 4070 nM | > 50800 nM | 2410 nM | 23300 nM | GI50 (BT-549 breast): 2520 nM; TGI (BT-549 breast): 7850 nM; GI50 (HT29 colon): 2650 nM; TGI (HT29 colon): > 26200 nM; GI50 (RPMI-8226 leukemia): 1590 nM; TGI (RPMI-8226 leukemia): 3210 nM |
| C=CC(=O)Nc1cc(Nc2nccc(-c3cn(C)c4ccccc34)n2)c(OC)cc1N(C)CCN(C)C | 1140 nM | 2610 nM | 317 nM | 1770 nM | 1740 nM | 5730 nM | 2020 nM | 3540 nM | 179 nM | 1120 nM | 1130 nM | 2370 nM | 746 nM | 2120 nM | 1150 nM | 2540 nM | 1420 nM | 2760 nM | 49.5 nM | 843 nM | GI50 (BT-549 breast): 1330 nM; TGI (BT-549 breast): 2620 nM; GI50 (HT29 colon): 1610 nM; TGI (HT29 colon): 2990 nM; GI50 (RPMI-8226 leukemia): 980 nM; TGI (RPMI-8226 leukemia): 2230 nM |
